# Measured values from US20250270321A1, “METHODS OF TREATING LUNG CANCER BY ADMINISTERING A PD-1 INHIBITOR” (priority 2021, published 2025).
# Several values for one entry are separate records, joined by “and”; a condition that tells them apart may be missing. Equal entries are not always repeated. Entries after “also recorded” stand apart in the source; their conditions may differ. Marks after values point to notes of the source that are not given here.
# Columns and labels:
# [1] = system: advanced NSCLC with PD-L1 ≥50% and brain metastases; assay: EMPOWER-Lung 1 phase 3 subgroup analysis: clinical outcomes in patients with treated stable brain metastases; assay type: in vivo, human
# Excerpt: Primary Endpoints: The primary endpoints are OS and PFS (per RECIST 1.1, Eisenhauer 2009). Overall survival is defined as the time from randomization to the date of death. A patient who has not died is censored at the last known date of contact. Progression-free survival is defined as the time from randomization to the date of the first documented tumor progression or death due to any cause. Patients are censored according to the following rules: […] Secondary Endpoints: A key secondary endpoint in the study is ORR. Objective response rate is defined as the number of patients with a best overall response (BOR) of confirmed CR or PR divided by the number of patients in the efficacy analysis set. Best overall response is defined as the best overall response (per RECIST 1.1) between the date of randomization and the date of the first objectively documented progression or the date of subsequent anti-cancer therapy, whichever comes first. Other secondary endpoints include DOR and QOL. Duration of response is defined as the time between the date of first response (CR or PR) to the date of the first documented tumor progression (per RECIST 1.1) or death due to any cause. Quality of life is measured by EORTC QLQ-C30 and […]. Further secondary endpoints also include the safety and tolerability of cemiplimab. To evaluate the safety and tolerability of cemiplimab versus platinum-based chemotherapies, safety and tolerability are measured by the incidence of AEs, serious adverse events (SAEs), deaths, and laboratory abnormalities to assess immunogenicity (ADA/Nabs) to cemiplimab and any relationship with drug concentrations, efficacy and safety. Methods: The design of this study is illustrated in FIG. 1. […] Tumor response to therapy was assessed according to RECIST 1.1, measured by CT or MRI. […] All patients received local therapy and needed to be neurologically stable before joining the trial. In patients with a known history of treated brain metastases at baseline, CT or MRI of the brain with contrast (unless contraindicated) was performed at screening (except if performed within 60 days prior to screening). Additional sites of known disease (including CNS) were also imaged at screening. During the treatment and follow-up period, surveillance imaging of the brain was performed every 18 weeks for year 1, and every 24 weeks for year 2, or sooner if clinically indicated.
# [2] = system: advanced NSCLC with PD-L1 ≥50%; assay: EMPOWER-Lung 1 patient-reported symptoms, functioning and QoL (EORTC QLQ-C30/QLQ-LC13), ITT population; assay type: in vivo, human; settings: for Definitive deterioration on key symptoms (dyspnea, cough, pain in chest, pain in other body parts, fatigue, nausea/vomiting, appetite loss, constipation, diarrhea): all P<0.05
# Excerpt: Methods: EMPOWER-Lung 1 was a multicenter, open-label, randomized, controlled, Phase III, pivotal clinical trial of cemiplimab in adults (≥18 years) with: […] (ii) ECOG performance status ≤1; (iii) adequate organ and bone marrow function; and (iv) adequately treated clinically stable brain metastases (historically underrepresented in clinical trials) were allowed to enroll. […] In the intent-to-treat population, mixed-effects repeated measures models (mixed-model repeat measures, MMRM) were used to estimate least squares (LS) mean change from BL on all scales. Follow-up assessment was conducted 14 to 30 days after the last study treatment administration if a patient discontinued, or 14 to 30 days (±7 days) after the last cycle visit if the patient completed treatment. […] Scores range from 0 to 100; high scores on functional domains and low scores on symptoms reflect better outcomes. The QLQ-LC13 is a patient-reported outcome measure that assesses lung cancer disease- and treatment-specific symptoms during the past week. Scores range from 0 to 100; higher scores reflect higher symptom levels. […] MMRM analysis was used to estimate LS mean change from baseline on all scales among patients with a baseline and at least one post-baseline score. […] Hazard ratios (HRs) with 95% confidence intervals (95% CIs) were derived from the survival analyses to determine the likelihood of definitive deterioration. Analyses were based on the intention-to-treat (ITT) population consisting of all randomized patients.
# [3] = system: locally advanced NSCLC (laNSCLC) with PD-L1 ≥50%; assay: EMPOWER-Lung 1 subgroup analysis: patients with locally advanced NSCLC; assay type: in vivo, human
# Excerpt: Methods: […] Patients with locally advanced non-small cell lung cancer ([…]) were those with Stage IIIB/IIIC disease who were not candidates for definitive concurrent chemoradiotherapy. Study Design: Key eligibility criteria included: (i) treatment-naïve advanced NSCLC; […] (iii) no EGFR, ALK, or ROS1 mutations; […] Stratification factors included: histology (squamous vs non-squamous) and region (Europe, Asia, or ROW). Primary endpoints: OS and PFS. Secondary endpoints: ORR (key), DOR, HRQoL, and safety. The patients had locally advanced NSCLC, including those with Stage IIIB/IIIC disease who were not candidates for treatment with definitive concurrent chemoradiotherapy or had recurred after initial treatment with concurrent chemoradiotherapy.
# advanced NSCLC = settings: in vivo
# [4] = system: advanced NSCLC (aNSCLC) with PD-L1 ≥50%; assay: EMPOWER-Lung 1 phase 3 study, cemiplimab monotherapy vs platinum-doublet chemotherapy, OS and PFS; assay type: in vivo, human; settings: cemiplimab monotherapy versus platinum-doublet chemotherapy
# Excerpt: Additional objectives include further characterization of tumor responses, patient-reported outcomes, safety, and pharmacokinetics (PK). Objectives: […] Progression-free survival, the time to tumor progression (based on Response Evaluation Criteria in Solid Tumors version 1.1 [RECIST 1.1] criteria [Eisenhauer) 2009]) or death, was chosen as a primary endpoint because PFS is recognized as a marker of clinical benefit. […] Disease progression will be determined based on the RECIST 1.1 criteria (Eisenhauer 2009). […] A secondary objective of the study includes comparing the ORR of cemiplimab versus platinum-based chemotherapies. Primary Endpoints: The primary endpoints are OS and PFS (per RECIST 1.1, Eisenhauer 2009). Overall survival is defined as the time from randomization to the date of death. A patient who has not died is censored at the last known date of contact. Progression-free survival is defined as the time from randomization to the date of the first documented tumor progression or death due to any cause. Patients are censored according to the following rules: […] Study Design: […] […] Safety is assessed through the occurrence of TEAEs, vital sign evaluation, physical examination, and laboratory analyses. […] […]
# [5] = system: advanced NSCLC with PD-L1 ≥50% and clinically stable treated brain metastases; assay: EMPOWER-Lung 1 post-hoc patient reported outcomes (EORTC QLQ-C30/QLQ-LC13) in brain metastases subgroup; assay type: in vivo, human
# Protocol: Patient Reported Outcomes (PROs): Post-hoc exploratory analyses were conducted to evaluate PROs in this subgroup of aNSCLC patients with PD-L1 ≥50% and clinically stable treated brain metastases at baseline. PROs were assessed at baseline and day 1 of each treatment cycle for the first 6 cycles, and then on day 1 of every third cycle using EORTC QLQ-C30 and QLQ-LC13 questionnaires. Higher scores indicate better functioning, global health status (GHS)/quality of life (QoL), or worse symptom severity. Mixed model for repeated measures analyses were performed to compare overall change from baseline scores between the two treatment arms, while controlling for baseline characteristics. The baseline PRO scores of the cemiplimab arm were broadly similar with the chemotherapy arm.
# [6] = after baseline, brain metastases subgroup, n=34 per arm
# [7] = brain metastases subgroup, n=34 per arm
# [8] = brain metastases subgroup, cemiplimab vs chemotherapy
# [9] = Cemiplimab minus chemo, QLQ-C30, ITT
# [10] = cemiplimab vs chemotherapy, ITT
# [11] = cemiplimab n=45, chemotherapy n=42
# [12] = cemiplimab n=45, chemotherapy n=42, listed as cemiplimab
substance,measurement,setting,value
cemiplimab,"CNS intracranial disease progression, % of patients",[1]; [6],5.9%
same,"CNS intracranial disease progression, patients",[1]; [6],two
same,"Best overall tumor response: Complete response, %",[1]; [7],(8.8) %
same,"Best overall tumor response: Non-evaluable, %",[1]; [7],(11.8) %
same,"Best overall tumor response: Partial response, %",[1]; [7],(32.4) %
same,"Best overall tumor response: Progressive disease, %",[1]; [7],(20.6) %
same,"Best overall tumor response: Stable disease, %",[1]; [7],(26.5) %
same,"Extra-CNS disease progression, % of patients",[1]; [7],26.5%
same,"Extra-CNS disease progression, patients",[1]; [7],9 patients
same,"Intracranial disease progression due to a new tumor, % of patients",[1]; [7],2.9%
same,"Intracranial disease progression due to a new tumor, patients",[1]; [7],one
same,"Intracranial disease progression due to an existing tumor, % of patients",[1]; [7],5.9%
same,"Intracranial disease progression due to an existing tumor, patients",[1]; [7],two
same,ORR,[1]; [7],41.2%
same,"OS, median","[1]; brain metastases subgroup, n=34 per arm, cemiplimab 350 mg IV Q3W or investigator's choice chemotherapy",18.7 months
same,ORR,"[1]; brain metastases subgroup, n=34 per arm, listed as cemiplimab",41.2%
same,"PFS, median","[1]; brain metastases subgroup, n=34 per arm, per independent review committee",10.4 months
same,ORR odds ratio (95% CI),[1]; [8],6.9 (1.7-27.8); P = 0.0034*
same,OS HR (95% CI),[1]; [8],0.17 (0.04-0.76); P = 0.0091
same,PFS HR (95% CI),[1]; [8],0.45 (0.22-0.92); P = 0.0231
same,Median KM estimation of brain metastasis PFS,"[1]; cemiplimab versus chemotherapy, FIG. 4",superior
same,Difference in LS mean change from BL (95% CI): Cognitive functioning,[2]; [9],2.5 (0.4-4.5)*
same,Difference in LS mean change from BL (95% CI): Emotional functioning,[2]; [9],3.4 (1.0-5.9)*
same,Difference in LS mean change from BL (95% CI): GHS/QoL,[2]; [9],5.4 (2.7-8.1)*
same,Difference in LS mean change from BL (95% CI): Physical functioning,[2]; [9],4.2 (1.6-6.7)*
same,Difference in LS mean change from BL (95% CI): Role functioning,[2]; [9],3.3 (0.2-6.3)*
same,Difference in LS mean change from BL (95% CI): Social functioning,[2]; [9],5.2 (2.5-7.9)*
same,LS mean change (SE) from baseline in GHS/QOL across all timepoints,"[2]; MMRM analysis, EORTC QLQ-C30, C2 to C15",7.1 (1.0)
same,"Definitive deterioration on key symptoms (dyspnea, cough, pain in chest, pain in other body parts, fatigue, nausea/vomiting, appetite loss, constipation, diarrhea)",[2]; cemiplimab versus chemotherapy,lower likelihood of definitive deterioration
same,"Definitive deterioration on key symptoms (dyspnea, cough, pain in chest, pain in other body parts, fatigue, nausea/vomiting, appetite loss, constipation, diarrhea)","[2]; cemiplimab versus chemotherapy, listed as cemiplimab",significantly lower risk of definitive deterioration
same,Definitive deterioration of treatment-related symptoms of peripheral neuropathy and alopecia,"[2]; cemiplimab versus chemotherapy, both P<0.05",lower likelihood of definitive deterioration; also recorded: lower risk of definitive deterioration
same,HR (95% CI) for definitive deterioration: Cognitive functioning,[2]; [10],0.64 (0.44-0.93)*
same,HR (95% CI) for definitive deterioration: Emotional functioning,[2]; [10],0.49 (0.30-0.79)*
same,HR (95% CI) for definitive deterioration: GHS/QoL,[2]; [10],0.73 (0.52-1.03)
same,HR (95% CI) for definitive deterioration: Physical functioning,[2]; [10],0.59 (0.42-0.84)*
same,HR (95% CI) for definitive deterioration: Role functioning,[2]; [10],0.65 (0.46-0.92)*
same,HR (95% CI) for definitive deterioration: Social functioning,[2]; [10],0.50 (0.35-0.72)*
same,12-month OS,[3]; FIG. 9,78.5%
same,12-month PFS,[3]; FIG. 10,38.5%
same,"Best overall response: CR, %",[3]; [11],(2.2) %
same,"Best overall response: Non-evaluable, %",[3]; [11],(17.8) %
same,"Best overall response: PD, %",[3]; [11],(15.6) %
same,"Best overall response: Partial response, %",[3]; [11],(42.2) %
same,"Best overall response: Stable disease, %",[3]; [11],(22.2) %
same,"ORR, %",[3]; [11],(44.4) %
same,"PFS, median",[3]; [11],8.4 months
same,"ORR, %",[3]; [12],44% and 44.4%
same,"OS, median",[3]; [12],not yet reached
same,ORR odds ratio (95% CI),[3]; cemiplimab vs chemotherapy,1.8 (0.7-4.2); *P = 0.20
same,OS HR (95% CI),[3]; cemiplimab vs chemotherapy,0.5 (0.2-1.1); P = 0.0875
same,PFS HR (95% CI),[3]; cemiplimab vs chemotherapy,0.5 (0.3-0.9); P = 0.0153
same,Reduction in the risk of disease progression,[3]; cemiplimab vs chemotherapy,51%
same,PFS HR (95% CI),"[3]; cemiplimab vs chemotherapy, listed as cemiplimab",0.49
same,"KM estimated DOR, median","[3]; responders: cemiplimab n=20, chemotherapy n=13",12.5 months
same,"Patients with ≥1 PRBC transfusions, %",advanced NSCLC,1.1%
same,"Patients with ≥1 platelet transfusions, %",advanced NSCLC,0.3%
same,SAE-associated hospitalization rate,advanced NSCLC,33.2 per 100 patient-years
same,Overall survival hazard ratio,[4],0.57
same,Progression-free survival hazard ratio,[4],0.54
same,Difference in overall change from baseline in appetite loss,[5]; cemiplimab versus chemotherapy,−7.43
same,Difference in overall change from baseline in emotional functioning,[5]; cemiplimab versus chemotherapy,7.27
same,Difference in overall change from baseline in role functioning,[5]; cemiplimab versus chemotherapy,8.59
same,Difference in overall change from baseline in symptoms of fatigue,[5]; cemiplimab versus chemotherapy,−8.19
same,"Overall change from baseline in GHS/QOL, difference cemiplimab versus chemotherapy",[5]; mixed model for repeated measures,9.35
